Measurements: patent publication US8273775B2, “Non-steroidal brassinosteroid mimetic” (priority 2006, dated 2012)
Peptide text beside a SMILES is read from it. * marks the point of attachment. Cbz = O=C(OCc1ccccc1)*

Legend:
[1] = test system: BR-biosynthetic, BR signaling and BR-induced genes; assay: Real time PCR of BR pathway genes; format: in vivo, Arabidopsis thaliana; conditions: 30 μM, 2 hours
Description: FIG. 7: Q-PCR analysis of genes involved in BR biosynthesis. WT Arabidopsis plants were treated with abrasin (indicated as I5) for 2 hours at a concentration of 30 μM and/or with CHX at a concentration of 30 μM and RNA was extracted from whole plants.
(§1) FIG. 8: A: Western Blot analysis of the BES1 protein in 35S:BES1:GFP plants treated with BL and abrasin (indicated as I5 throughout the figure) (A); MG132 with BL or abrasin (B); a time course with abrasin (C) and a concentration gradient with abrasin (D). B: Abrasin and BL induce similar transcriptional regulation of the BR pathway.
RNA was extracted with the RNeasy kit. Poly(dT) cDNA was prepared from […] of total RNA with Superscript III reverse transcriptase (Invitrogen) and quantified on an LightCycler 480 apparatus (Roche) with the SYBR Green I Master kit (Roche) according to the manufacturer's instructions. Target quantifications were performed with specific primer pairs designed with the Beacon Designer 4.0 (Premier Biosoft International). All PCRs were performed in triplicate.
The primers used to quantify gene expression levels were for BAS 1: 5′-[…]-3′ and 5′-[…]-3′; BR6Ox1: 5′-TGGCCAATCTTTGGCGAA-3′ and 5′-[…]-3′; BR6Ox2: 5′-[…]-3′ and 5′-[…]-3′; BRI1: 5′-[…]-3′ and 5′-[…]-3′; CPD: 5′-[…]-3′ and 5′-[…]-3′; DWF4: 5′-[…]-3′ and 5′-[…]-3′ ROT3: 5′-ATTGGCGCGTTCCTCAGAT-3′ and 5′-[…]-3′; BES1: 5′-[…]-3′ and 5′-[…]-3′; BIN2: 5′-[…]-3′ and 5′-[…]-3′; BSU 1: 5′-[…]-3′ and 5′-[…]-3′; BZR1: 5′-[…]-3′ and 5′-[…]-3′; CDKA1; 1: 5′-[…]-3′ and 5′-[…]-3′; EEF1α: 5′-[…]-3′ and 5′-[…]-3′; BKI1: 5′-GCTCCGGCGTCGATGA-3′ and 5′-[…]-3′.

[2] = test system: Arabidopsis thaliana seedlings; assay: Lateral root formation / root elongation of seedlings on agar plates; format: in vivo; conditions: structural variants of abrasin
Description: FIG. 3: (A) Phenotypic characterization. WT plants were grown under standard conditions on agar plates. […] Left panel: control plant. Middle panel: abrasin treated plant. Right panel: BL treated plant. (B) Dose response measurements of abrasin using lateral root formation as an indicator of brassinosteroid like activity. Error bars represent standard error of the mean. […] Osram) at 22° C. Three days after germination compounds were added to the 96-well plates at a final concentration of 50 μM. Plants were screened six days after germination for brassinosteroid-related phenotypes. For further phenotypical analysis, all plants were grown on vertically oriented square plates (Greiner Labortechnik, Austria) with solid medium derived from standard Murashige and Skoog medium under the same conditions. For the hypocotyl-elongation assay, plants were grown in the dark at 22° C. under the same conditions.

[3] = test system: BES1 protein in 35S:BES1:GFP plants; assay: Western blot analysis of BES1 phosphorylation state; format: in vivo, Arabidopsis thaliana
Description: as §1
For protein extraction, six-day-old seedlings were grown under standard conditions as described earlier on solid medium. Plants were next soaked in liquid MS-medium supplemented with the indicated compounds (concentrations and time periods as indicated in figures). Subsequently, plants were frozen in liquid nitrogen, ground and homogenized in ice-cold homogenization buffer (25 mM Tris-HCl (pH 8), 5 mM EDTA, 1 mM β-Mercapto-ethanol, 15 mM MgCl—2, 85 mM NaCl, 0.1% Tween 20, 1 protease inhibitor tablet/50 ml, Complete (Roche diagnostics, Belgium)). The homogenate was centrifuged twice (5 min, 14.000 rpm, 4° C.) in an Eppendorf Centrifuge 5417. Loading buffer was added, the samples were heated for 10 min at 95° C. and centrifuged. The samples were separated on a 12% acrylamide gel or a 4-20% gradient pre-cast gel (Bio-Rad) and blotted on nitrocellulose membranes (Hybond-C super, GE-Biosciences, UK) in 190 mM glycine and 25 mM Tris-Hcl using a mini-blotting system (Bio-Rad, USA) for 1 h. Membranes were blocked overnight at 4° C. in phosphate buffer with 0.1% Tween 20 and 5% skim milk (BD Difco, USA). For immunodetection, anti-BES1 antibodies at 1:2000 dilution and anti-GFP antibodies at 1:1000 dilution were used as primary antibody. As secondary antibody, anti-rat and anti-rabbit were used at 1:10.000 dilution. The proteins were detected by chemiluminescence (Perkin-Elmer, USA).

With `C[C@@H]1C[C@@H]([C@H](O)CC2CC(=O)NC(=O)C2)C(=O)[C@@H](C)C1` [CHX, cycloheximide, reference compound] as the molecule, how does the “expression of genes downstream of the BRI1 receptor” value [1] read?
The value was “able to induce some of these genes”.

For `O=C(O)CCC(=O)Nc1ccc(F)cn1` [fluoro derivative, 4-[(5-fluoro-2-pyridinyl)amino]-4-oxobutanoic acid], which “effect on lateral root formation as indication of brassinosteroid like activity” value [2] is on record?
The value was “highest activity”.

`CC(C)C[C@@H](C=O)NC(=O)[C@H](CC(C)C)NC(=O)[C@H](CC(C)C)NC(=O)OCc1ccccc1` [MG132, Z-Leu-Leu-Leu-CHO, reference compound] (Cbz-Leu-Leu-Leu-aldehyde) was tested. Which “total amount of BES1 protein” value ([3]; MG132 treatment) did it give?
The value was “an increase in the total amount of BES1”.

And the BES1 phosphorylation state ([3]; addition of BL or MG132)?
The BES1 phosphorylation state was “no shift in the ratio between the phosphorylated and the dephosphorylated form is observed”.
